We go through 32 molecules from ChEMBL document CHEMBL5260817, “Polyamine-based analogs and conjugates as antikinetoplastid agents” (Eur J Med Chem, 2017).

In assay [1] the target is T1, Trypanothione reductase (Trypanosoma cruzi, UniProt P28593). Put plainly: Inhibition of Trypanosoma cruzi TryR assessed as inhibition constant in presence of NADPH.
The test system of assay [2] is Trypanosoma brucei rhodesiense. Put plainly: Antiprotozoal activity against Trypanosoma brucei rhodesiense. Format: functional, organism-based.
In assay [3] the target is T1, Trypanothione reductase. The experiment in a line: Inhibition of Trypanosoma cruzi TryR assessed as inhibition constant.
In assay [4] the test system is Trypanosoma brucei brucei. Put plainly: Antiprotozoal activity against Trypanosoma brucei brucei. In kind it is functional, organism-based.
The subject of assay [5] is Leishmania donovani. Put plainly: Antiprotozoal activity against Leishmania donovani promastigotes. In kind it is functional, organism-based.
The subject of assay [6] is Leishmania donovani. The experiment in a line: Antiprotozoal activity against Leishmania donovani MHOM/SD/00/1S-2D strain promastigotes assessed as parasitic death at 10 uM relative to control. Format: functional.
Assay [7] has as its system Leishmania donovani. Put plainly: Antiprotozoal activity against Leishmania donovani MHOM/SD/00/1S-2D strain promastigotes assessed as parasitic death. In kind it is functional, organism-based.
In assay [8] the test system is Leishmania donovani. The experiment in a line: Antiprotozoal activity against Leishmania donovani amastigotes assessed as growth inhibition measured after 7 days relative to control. In kind it is functional. As to conditions: time 7 day.
Assay [9] deals with T1, Trypanothione reductase. The experiment in a line: Inhibition of Trypanosoma cruzi TryR.
For assay [10], the system named is Leishmania braziliensis. The experiment in a line: Antiprotozoal activity against Leishmania braziliensis MHOM/PE/84/LC26 amastigotes infected in mouse J774.2 cells measured after 72 hrs. Format: functional, organism-based. As to conditions: J774.2, 72 h.
The target of assay [11] is Glutathione reductase, mitochondrial (Homo sapiens, UniProt P00390). The experiment in a line: Inhibition of human glutathione reductase.
Chain of Glutathione reductase, mitochondrial (P00390 whole entry): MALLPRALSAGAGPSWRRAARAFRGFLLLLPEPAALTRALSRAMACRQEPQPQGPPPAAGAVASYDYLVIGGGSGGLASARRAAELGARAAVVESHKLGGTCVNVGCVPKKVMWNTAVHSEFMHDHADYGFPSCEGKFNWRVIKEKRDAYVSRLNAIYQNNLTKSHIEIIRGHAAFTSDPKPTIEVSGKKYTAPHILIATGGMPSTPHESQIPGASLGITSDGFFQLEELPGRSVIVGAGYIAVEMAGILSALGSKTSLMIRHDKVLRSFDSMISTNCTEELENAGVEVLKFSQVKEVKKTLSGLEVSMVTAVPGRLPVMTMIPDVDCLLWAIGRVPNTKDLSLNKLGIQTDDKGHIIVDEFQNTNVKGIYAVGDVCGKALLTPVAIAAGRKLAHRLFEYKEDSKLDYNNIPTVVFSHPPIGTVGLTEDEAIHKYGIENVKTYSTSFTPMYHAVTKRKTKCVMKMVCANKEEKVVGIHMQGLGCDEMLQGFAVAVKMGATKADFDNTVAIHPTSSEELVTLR
Assay [12] has as its system Leishmania amazonensis. The experiment in a line: Antiprotozoal activity against Leishmania amazonensis measured after 3 days by MTT assay. In kind it is functional, organism-based. The settings on record: 72 h.
In assay [13] the test system is Leishmania chagasi. Put plainly: Antiprotozoal activity against Leishmania chagasi measured after 3 days by MTT assay. Format: functional, organism-based. The settings on record: 72 h.
Assay [14] concerns Trypanosoma cruzi. Put plainly: Antiprotozoal activity against Trypanosoma cruzi. Format: functional, organism-based.
Assay [15] relates to Leishmania donovani. The experiment in a line: Antiprotozoal activity against Leishmania donovani. Format: functional, organism-based.
A short description of assay [16]: Inhibition of TryR (unknown origin) assessed as inhibition constant. Set-up: species or system Bacteria.
The test system of assay [17] is Trypanosoma brucei. The experiment in a line: Trypanocidal activity against Trypanosoma brucei K 243-As-10-3 strain. Format: functional, organism-based.
Assay [18] relates to Trypanosoma brucei. The experiment in a line: Trypanocidal activity against Trypanosoma brucei K 269 strain. In kind it is functional, organism-based.
The subject of assay [19] is Trypanosoma brucei. The experiment in a line: Trypanocidal activity against Trypanosoma brucei K 243 strain. Format: functional, organism-based.
The test system of assay [20] is Trypanosoma brucei. The experiment in a line: Trypanocidal activity against Trypanosoma brucei Lab 110 strain. Format: functional, organism-based.
The subject of assay [21] is Bacteria. Put plainly: Inhibition of TryR (unknown origin) at 10 uM relative to control.
Assay [22] addresses Trypanothione reductase (Trypanosoma brucei brucei, UniProt P39051). Put plainly: Inhibition of Trypanosoma brucei TryR assessed as inhibition constant.
Assay [23] deals with Leishmania amazonensis. The experiment in a line: Antiprotozoal activity against Leishmania amazonensis promastigotes measured after 48 hrs by MTT assay. In kind it is functional, organism-based.
Assay [24] relates to Trypanosoma brucei. Put plainly: Antiprotozoal activity against Trypanosoma brucei. In kind it is functional, organism-based.
For assay [25], the system named is Trypanosoma cruzi. Put plainly: Antiprotozoal activity against Trypanosoma cruzi JEM strain epimastigotes. Format: functional, organism-based.
Assay [26] relates to Trypanosoma cruzi. The experiment in a line: Antiprotozoal activity against Trypanosoma cruzi MG strain epimastigotes. Format: functional, organism-based.
The test system of assay [27] is Leishmania donovani. The experiment in a line: Antiprotozoal activity against Leishmania donovani MHOM/IN/1978/UR6 strain promastigotes assessed as parasite growth inhibition. Format: functional, organism-based.

T1 sequence (P28593 whole entry): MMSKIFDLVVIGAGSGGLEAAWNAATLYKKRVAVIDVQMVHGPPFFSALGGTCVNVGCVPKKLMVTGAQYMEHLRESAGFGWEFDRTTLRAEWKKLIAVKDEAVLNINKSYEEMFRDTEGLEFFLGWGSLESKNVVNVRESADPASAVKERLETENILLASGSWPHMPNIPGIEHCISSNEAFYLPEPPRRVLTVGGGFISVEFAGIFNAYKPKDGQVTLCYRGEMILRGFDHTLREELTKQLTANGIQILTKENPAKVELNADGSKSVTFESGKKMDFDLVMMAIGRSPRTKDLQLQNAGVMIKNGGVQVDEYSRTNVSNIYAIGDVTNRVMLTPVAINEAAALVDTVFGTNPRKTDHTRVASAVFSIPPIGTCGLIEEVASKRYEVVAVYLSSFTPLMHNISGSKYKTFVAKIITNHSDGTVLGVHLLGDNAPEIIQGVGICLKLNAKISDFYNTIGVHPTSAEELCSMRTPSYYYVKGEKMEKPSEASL
Chain of Trypanothione reductase (Trypanosoma brucei brucei, UniProt P39051) (P39051 whole entry): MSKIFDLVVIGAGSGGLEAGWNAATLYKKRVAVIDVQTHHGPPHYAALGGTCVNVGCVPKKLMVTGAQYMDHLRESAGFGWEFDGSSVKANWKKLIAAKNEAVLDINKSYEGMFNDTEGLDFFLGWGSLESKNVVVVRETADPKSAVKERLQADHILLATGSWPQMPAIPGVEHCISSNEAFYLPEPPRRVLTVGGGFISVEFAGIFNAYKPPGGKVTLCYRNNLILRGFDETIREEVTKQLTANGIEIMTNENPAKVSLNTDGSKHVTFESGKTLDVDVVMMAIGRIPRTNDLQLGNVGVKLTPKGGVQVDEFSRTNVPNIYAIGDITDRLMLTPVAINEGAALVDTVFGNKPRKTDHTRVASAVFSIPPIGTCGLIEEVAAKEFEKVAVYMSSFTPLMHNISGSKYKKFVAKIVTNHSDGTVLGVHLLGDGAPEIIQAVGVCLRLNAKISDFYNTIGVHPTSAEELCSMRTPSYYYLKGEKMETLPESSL

On to `O=C(NCCCCNCCCNC(=O)C(F)(F)F)C(F)(F)F`, for which the Ki in assay [1] was above 2000 µM.

As for `C(CCCNCCCNCC1CCCCCC1)CCCNCCCNCC1CCCCCC1`, in [2], the IC50 is 0.16 µM.

On to `NCCCCN(CCCN)Cc1ccc2ccccc2c1`, for which the Ki in [3] was above 100 µM.

Turning to `NCCCNCCCCNCCCNCCCc1ccccc1`, in assay [3], the Ki was 37 µM.

In assay [4], `COc1ccc2c(C(=O)C(=O)NCCCNCCCCCCCCCCCCNCCCNC(=O)C(=O)c3c[nH]c4cc(OC)ccc34)c[nH]c2c1` came in with an IC50 of 0.18 µM.

`NCCCN(Cc1ccc(OCc2ccc(Br)cc2)cc1)Cc1ccc(OCc2ccc(Br)cc2)cc1` yielded an IC50 in assay [5] below 1 µM.

Take `COc1cc(CN(CCCN)Cc2ccc(OCc3ccc(Br)cc3)c(OC)c2)ccc1OCc1ccc(Br)cc1`: the half-maximal inhibitory concentration (IC50) in assay [5] is below 1 µM.

As to `COc1ccc2nc3cc(Cl)ccc3c(NCCCCNCCCNc3c4ccc(Cl)cc4nc4ccc(OC)cc34)c2c1`, the inhibition at 10 µM in assay [6] came out at 90%. Also, in assay [7], the IC50 was determined as 1 µM.

As to `COc1cc(CN(CCCN)Cc2ccc(OCc3ccccc3)c(OC)c2)ccc1OCc1ccccc1`, the concentration for half-maximal inhibition (IC50) in [5] was below 1 µM.

Regarding `CN1CCN(CCCNCCC#N)CC1`, the “inhibition (INH)” value in [8] came to 80%.

In the case of `CN1CCN(CCC(=O)Nc2cc(Cl)ccc2Sc2cccc(NC(=O)CCCC(=O)Nc3cccc(Sc4ccc(Cl)cc4NC(=O)CCN4CCN(C)CC4)c3)c2)CC1`, the IC50 in [9] and in assay [10] was 0.93 µM throughout.

On to `CCCCN(CCCC)CCCNC(=O)CCCCC1=C(C)C(=O)c2cccc(O)c2C1=O`, for which, in assay [11], the IC50 was above 40 µM.

On to `CCCCCCCCCCCCNCCCCN`, for which the IC50 in assay [12] came to 5.13 µM; in assay [13], 0.53 µM.

For the molecule `NCCCCNCCCNC(=O)C(=O)c1c[nH]c2ccccc12`, the IC50 in assay [14], in [15] and in assay [2] was above 40 µM each time.

Take `O=C(NCCCCNCCCNC(=O)c1cnc2cc(C(F)(F)F)ccc2c1O)c1cnc2cc(C(F)(F)F)ccc2c1O`: in [16], the Ki was 0.85 µM.

As for `CCCCN(CCCC)CCCNC(=O)CCCCC1=C(C)C(=O)c2ccccc2C1=O`, in assay [11], the IC50 is above 40 µM.

Regarding `c1ccc(CCCN(CCCCN(CCCc2ccccc2)CCCN(CCCc2ccccc2)CCCc2ccccc2)CCCN(CCCc2ccccc2)CCCc2ccccc2)cc1`, the IC50 in [17], in assay [18], in assay [19] and in assay [20] was 20 µM in each case.

In [4], `CC[C@H](C)CNCCCNCCCCCCCNCCCNC[C@@H](C)CC` showed an IC50 of 0.04 µM.

On to `O=C(Cc1c[nH]c2ccccc12)NCCCCNCCCNC(=O)Cc1c[nH]c2ccccc12`, for which the inhibition in assay [21] is 95%.

On to `c1ccc(CCCNCCCN(CCCCN(CCCNCCCc2ccccc2)CCCc2ccccc2)CCCc2ccccc2)cc1`, for which the IC50 in assay [17], in assay [18], in [19] and in assay [20] was 0.1 µM in each case. Moreover, the Ki in [22] was 0.6 µM.

`CC(C)=CCC/C(C)=C/CC/C(C)=C/CN1CCNCC1` registered an IC50 in assay [23] of 13 µM.

With `CC(C)(C)OC(=O)N(CCCN)CCCCN`, in assay [1], the Ki is above 2000 µM.

In assay [2], `CN1CCN(CCC(=N)Nc2cc(Cl)ccc2Sc2ccccc2)CC1` returned an IC50 of 1.56 µM.

On to `CCCNCCCNC(=O)CNC(=O)[C@H](CC(Br)C(Br)C[C@H](NC(=O)OCc1ccccc1)C(=O)NCC(=O)NCCCNCCC)NC(=O)OCc1ccccc1` (stereo partly specified), for which the Ki in [3] came out at 15.9 µM.

`CC(C)=CCC/C(C)=C/CC/C(C)=C/CNCCCCN` came in with an IC50 in assay [23] of 15 µM.

For the molecule `COC(=O)/N=C(\NCCCN1CCN(C)CC1)NC(=O)OC`, the “inhibition (INH)” value in assay [8] was 85%.

Molecule `c1ccc2cc(CNCCCCNCCCNCc3ccc4ccccc4c3)ccc2c1` returned an IC50 in assay [24] of 0.19 µM.

Consider `CCCCCCCCCCCCCCC(N)CN` (stereo unspecified), for which the IC50 in assay [25] and in assay [26] was above 19 µM throughout.

`c1ccc(-c2cccc(CNCCCNCCCCCCCNCCCNCc3cccc(-c4ccccc4)c3)c2)cc1` displayed a half-maximal inhibitory concentration (IC50) in [24] of 1 µM.

With `CCCCCCCCCCCC(=O)NCCCCN`, the IC50 in assay [12] and in assay [13] was 10 µM each time.

As for `c1ccc(CNCCCCNCCCCCCCCCCCCNCCCNCc2ccccc2)cc1`, the IC50 in assay [27] came to 4 µM.

In the case of `CCCCCCCCCCCCCC(=O)NCCCC(=O)N(CC(=O)Nc1cccc(Sc2ccc(Br)cc2NC(=O)CCN2CCN(C)CC2)c1)C(=O)Nc1ccccc1Sc1ccc(Br)cc1NC(=O)CCN1CCN(C)CC1`, the midpoint of inhibition in assay [9], the IC50, lay at 0.2 µM.
